In US11771738B2 (Zoetis Services LLC, priority 2018, dated 2023) one finds minimal effective concentration and DiMf/DiL4 data, which are given here for ten compounds.

Read-outs that look alike come from different tables or passages of the source.

Common to all, as to type: cell-based
One assay has as its system D. immitis L4 larvae. The assay can be described thus: Dirofilaria immitis, L4 Stage (DiL4) In Vitro Assay. Conditions: for minimal effective concentration: Dirofilaria immitis, 72 h, read-out: DiL4 MED, Minimum Effective Dose, D. immitis L4 larvae motility, in vitro; for DiMf/DiL4: larval stage selectivity, ratio of DiMf MED to DiL4 MED.
The subject of assay [1] is microfilariae of Dirofilaria immitis. The experiment in a line: Dirofilaria immitis, Microfilaria (DiMf) In Vitro Assay. Conditions: Dirofilaria immitis, 72 h, read-out: DiMf MED, Minimum Effective Dose, D. immitis microfilariae motility, in vitro.
Assay [2] concerns third stage larvae of Haemonchus contortus. The assay can be described thus: Haemonchus contortus, Larvae Stage 3 (HcL3) In Vitro Assay. Particulars: Haemonchus contortus, 96 h.
The mark [3] stands for this setting: read-out: HcL3 MED, Haemonchus contortus third stage larvae in vitro, class mark appended to the Ex # in Table 3.
[4] abbreviates: read-out: HcL3 MED, Minimum Effective Dose, H. contortus third stage larvae, approximately 96 hours.
Setting [5] is: read-out: HcL3 MED, approximately 96 hours incubation, multiple-resistant field isolate.

Consider `CC(C)C[C@H]1C(=O)O[C@H](Cc2ccc([C@@H](C)c3nccs3)cc2)C(=O)N(C)[C@@H](CC(C)C)C(=O)O[C@H](C)C(=O)N(C)[C@@H](CC(C)C)C(=O)O[C@H](Cc2ccc([C@@H](C)c3nccs3)cc2)C(=O)N(C)[C@@H](CC(C)C)C(=O)O[C@H](C)C(=O)N1C` [Example 3-291, (3S,6R,9S,12R,15S,18R,21S,24R)-3,9,15,21-tetraisobutyl-4,6,10,16,18,22-hexamethyl-12,24-bis(4-((R)-1-(thiazol-2-yl)ethyl)benzyl)-1,7,13,19-tetraoxa-4,10,16,22-tetraazacyclotetracosan-2,5,8,11,14,17,20,23-octaone], for which the minimal effective concentration in the assay on D. immitis L4 larvae was 0.0001 µM; in assay [1], 0.0003 µM; in assay [2] (setting [3]) it was below 1 µM; in assay [2] (setting [4]), 0.3 µM; in assay [2] (setting [5]), at most 1 µM. The DiMf/DiL4 in the assay with D. immitis L4 larvae came to 3.
Regarding `CC(C)C[C@H]1C(=O)O[C@H](Cc2ccc(Cc3ccnc(N4CCOCC4)c3)cc2)C(=O)N(C)[C@@H](CC(C)C)C(=O)O[C@H](C)C(=O)N(C)[C@@H](CC(C)C)C(=O)O[C@H](Cc2ccc(Cc3ccnc(N4CCOCC4)c3)cc2)C(=O)N(C)[C@@H](CC(C)C)C(=O)O[C@H](C)C(=O)N1C` [Example 3-292, (3S,6R,9S,12R,15S,18R,21S,24R)-3,9,15,21-tetraisobutyl-4,6,10,16,18,22-hexamethyl-12,24-bis(4-((2-morpholinopyridin-4-yl)methyl)benzyl)-1,7,13,19-tetraoxa-4,10,16,22-tetraazacyclotetracosan-2,5,8,11,14,17,20,23-octaone], the minimal effective concentration was 0.0003 µM with D. immitis L4 larvae, 0.001 µM in assay [1], 1 to 3.3 µM in assay [2] (setting [3]) and 1.8 µM in assay [2] (setting [4]). The DiMf/DiL4 in the assay with D. immitis L4 larvae was determined as 3.3.
As to `COc1ncc(F)cc1Cc1ccc(C[C@H]2OC(=O)[C@H](CC(C)C)N(C)C(=O)[C@@H](C)OC(=O)[C@H](CC(C)C)N(C)C(=O)[C@@H](Cc3ccc(Cc4cc(F)cnc4OC)cc3)OC(=O)[C@H](CC(C)C)N(C)C(=O)[C@@H](C)OC(=O)[C@H](CC(C)C)N(C)C2=O)cc1` [Example 3-293, (3S,6R,9S,12R,15S,18R,21S,24R)-6,18-bis(4-((5-fluoro-2-methoxypyridin-3-yl)methyl)benzyl)-3,9,15,21-tetraisobutyl-4,10,12,16,22,24-hexamethyl-1,7,13,19-tetraoxa-4,10,16,22-tetraazacyclotetracosan-2,5,8,11,14,17,20,23-octaone], the figures for the minimal effective concentration (in the assay on D. immitis L4 larvae; in assay [1]; in assay [2] (setting [4])) were 0.0003 µM, 0.05 µM and 5.7 µM, respectively. In the assay on D. immitis L4 larvae, the DiMf/DiL4 is given as 167.
For `Cc1ncncc1Cc1ccc(C[C@H]2OC(=O)[C@H](CC(C)C)N(C)C(=O)[C@@H](C)OC(=O)[C@H](CC(C)C)N(C)C(=O)[C@@H](Cc3ccc(Cc4cncnc4C)cc3)OC(=O)[C@H](CC(C)C)N(C)C(=O)[C@@H](C)OC(=O)[C@H](CC(C)C)N(C)C2=O)cc1` [Example 3-294, (3S,6R,9S,12R,15S,18R,21S,24R)-3,9,15,21-tetraisobutyl-4,6,10,16,18,22-hexamethyl-12,24-bis(4-((4-methylpyrimidin-5-yl)methyl)benzyl)-1,7,13,19-tetraoxa-4,10,16,22-tetraazacyclotetracosan-2,5,8,11,14,17,20,23-octaone], the minimal effective concentration is 0.0001 µM in the assay on D. immitis L4 larvae; 0.0001 µM in assay [1]; below 1 µM in assay [2] (setting [3]); 1 µM in assay [2] (setting [4]); at most 1 µM in assay [2] (setting [5]). Moreover, the DiMf/DiL4 in the assay on D. immitis L4 larvae was found to be 1.
For the compound `CC(C)C[C@H]1C(=O)O[C@H](Cc2ccc(Cc3cnccc3C(F)F)cc2)C(=O)N(C)[C@@H](CC(C)C)C(=O)O[C@H](C)C(=O)N(C)[C@@H](CC(C)C)C(=O)O[C@H](Cc2ccc(Cc3cnccc3C(F)F)cc2)C(=O)N(C)[C@@H](CC(C)C)C(=O)O[C@H](C)C(=O)N1C` [Example 3-295, (3S,6R,9S,12R,15S,18R,21S,24R)-6,18-bis(4-((4-(difluoromethyl)pyridin-3-yl)methyl)benzyl)-3,9,15,21-tetraisobutyl-4,10,12,16,22,24-hexamethyl-1,7,13,19-tetraoxa-4,10,16,22-tetraazacyclotetracosan-2,5,8,11,14,17,20,23-octaone], the minimal effective concentration with D. immitis L4 larvae was 0.0003 µM; in assay [1], 0.005 µM; in assay [2] (setting [3]), 1 to 3.3 µM; in assay [2] (setting [4]), 1.8 µM. For the same compound, in the assay with D. immitis L4 larvae, the DiMf/DiL4 is listed as 16.7.
On to `CC(C)C[C@H]1C(=O)O[C@H](Cc2ccc(Cc3cccnc3C3CC3)cc2)C(=O)N(C)[C@@H](CC(C)C)C(=O)O[C@H](C)C(=O)N(C)[C@@H](CC(C)C)C(=O)O[C@H](Cc2ccc(Cc3cccnc3C3CC3)cc2)C(=O)N(C)[C@@H](CC(C)C)C(=O)O[C@H](C)C(=O)N1C` [Example 3-296, (3S,6R,9S,12R,15S,18R,21S,24R)-6,18-bis(4-((2-cyclopropylpyridin-3-yl)methyl)benzyl)-3,9,15,21-tetraisobutyl-4,10,12,16,22,24-hexamethyl-1,7,13,19-tetraoxa-4,10,16,22-tetraazacyclotetracosan-2,5,8,11,14,17,20,23-octaone], for which the minimal effective concentration in the assay with D. immitis L4 larvae is 0.0005 µM; in assay [1] it was 0.03 µM; in assay [2] (setting [3]), 1 to 3.3 µM; in assay [2] (setting [4]), 1.8 µM. Moreover, in the assay with D. immitis L4 larvae, the DiMf/DiL4 is listed as 60.
As to `CC(C)C[C@H]1C(=O)O[C@H](Cc2ccc(Cc3cccnc3OC(F)F)cc2)C(=O)N(C)[C@@H](CC(C)C)C(=O)O[C@H](C)C(=O)N(C)[C@@H](CC(C)C)C(=O)O[C@H](Cc2ccc(Cc3cccnc3OC(F)F)cc2)C(=O)N(C)[C@@H](CC(C)C)C(=O)O[C@H](C)C(=O)N1C` [Example 3-297, (3S,6R,9S,12R,15S,18R,21S,24R)-6,18-bis(4-((2-(difluoromethoxy)pyridin-3-yl)methyl)benzyl)-3,9,15,21-tetraisobutyl-4,10,12,16,22,24-hexamethyl-1,7,13,19-tetraoxa-4,10,16,22-tetraazacyclotetracosan-2,5,8,11,14,17,20,23-octaone], the minimal effective concentration in the assay on D. immitis L4 larvae was 0.001 µM; in assay [1] it was 0.03 µM; in assay [2] (setting [4]) it was above 10 µM. Moreover, in the assay on D. immitis L4 larvae, the DiMf/DiL4 is listed as 30.
On to `CC(C)C[C@H]1C(=O)O[C@H](Cc2ccc(Cc3cnccc3C#N)cc2)C(=O)N(C)[C@@H](CC(C)C)C(=O)O[C@H](C)C(=O)N(C)[C@@H](CC(C)C)C(=O)O[C@H](Cc2ccc(Cc3cnccc3C#N)cc2)C(=O)N(C)[C@@H](CC(C)C)C(=O)O[C@H](C)C(=O)N1C` [Example 3-307, 3,3′-(((((2R,5S,8R,11S,14R,17S,20R,23S)-5,11,17,23-tetraisobutyl-4,8,10,16,20,22-hexamethyl-3,6,9,12,15,18,21,24-octaoxo-1,7,13,19-tetraoxa-4,10,16,22-tetraazacyclotetracosane-2,14-diyl)bis(methylene))bis(4,1-phenylene))bis(methylene))diisonicotinonitrile], for which the minimal effective concentration was 0.0001 µM in the assay on D. immitis L4 larvae; 0.0003 µM in assay [1]; below 1 µM in assay [2] (setting [3]); 1 µM in assay [2] (setting [4]); at most 1 µM in assay [2] (setting [5]). Besides, the DiMf/DiL4 in the assay on D. immitis L4 larvae was 3.
For `CSc1ncccc1Cc1ccc(C[C@H]2OC(=O)[C@H](CC(C)C)N(C)C(=O)[C@@H](C)OC(=O)[C@H](CC(C)C)N(C)C(=O)[C@@H](Cc3ccc(Cc4cccnc4SC)cc3)OC(=O)[C@H](CC(C)C)N(C)C(=O)[C@@H](C)OC(=O)[C@H](CC(C)C)N(C)C2=O)cc1` [Example 3-308, (3S,6R,9S,12R,15S,18R,21S,24R)-3,9,15,21-tetraisobutyl-4,6,10,16,18,22-hexamethyl-12,24-bis(4-((2-(methylthio)pyridin-3-yl)methyl)benzyl)-1,7,13,19-tetraoxa-4,10,16,22-tetraazacyclotetracosan-2,5,8,11,14,17,20,23-octaone], the minimal effective concentration is 0.001 µM with D. immitis L4 larvae, 0.01 µM in assay [1], 1 to 3.3 µM in assay [2] (setting [3]) and 3.3 µM in assay [2] (setting [4]). In the assay with D. immitis L4 larvae, the DiMf/DiL4 was 10.
As for `Cc1cnccc1Cc1ccc(C[C@H]2OC(=O)[C@H](CC(C)C)N(C)C(=O)[C@@H](C)OC(=O)[C@H](CC(C)C)N(C)C(=O)[C@@H](Cc3ccc(Cc4ccncc4F)cc3)OC(=O)[C@H](CC(C)C)N(C)C(=O)[C@@H](C)OC(=O)[C@H](CC(C)C)N(C)C2=O)cc1` [Example 3-309, (3S,6R,9S,12R,15S,18R,21S,24R)-6-(4-((3-fluoropyridin-4-yl)methyl)benzyl)-3,9,15,21-tetraisobutyl-4,10,12,16,22,24-hexamethyl-18-(4-((3-methylpyridin-4-yl)methyl)benzyl)-1,7,13,19-tetraoxa-4,10,16,22-tetraazacyclotetracosan-2,5,8,11,14,17,20,23-octaone], the minimal effective concentration was 0.00055 µM in the assay on D. immitis L4 larvae, 0.003 µM in assay [1], 1 to 3.3 µM in assay [2] (setting [3]) and 3.3 µM in assay [2] (setting [4]). Besides, the DiMf/DiL4 in the assay on D. immitis L4 larvae is recorded as 5.5.
